Target: recombinant human HDACs (Homo sapiens)
Test: HDAC enzymatic assay
Type: biochemical
Details: 5 nM HDAC enzyme, 5 h pre-incubation, 17 h reaction at 25° C.; isoform not given; read-out: IC50
Protocol: All recombinant human HDACs were purchased from BPS Bioscience. The substrate, FAM-TSRHK(AC)KL-CONH, was synthesized at NanoSyn. Final assay reactions contained 100 mM HEPES (pH 7.5), 50 mM KCl, 0.1% BSA, 0.01% Triton X-100, 1% DMSO, 1 uM substrate and 5 nM HDAC enzyme. Enzyme and compounds were pre-incubated at 25° C. for 5 hours and reactions were initiated by addition of substrate. 10 uL reactions were incubated for 17 hours at 25° C. and terminated by the addition of 40 uL of buffer containing 100 mM HEPES (pH 7.5), 0.1% BSA, 0.01% Triton X-100 and 0.05% SDS. Substrate and product peptides present in each sample were separated electrophoretically using the LabChip 3000 capillary electrophoresis instrument. Change in the relative fluorescence intensity of the substrate and product peaks reflects enzyme activity. Reaction progress was determined as the product to sum ratio (PSR):P/(S+P), where P is the peak height of the product peptide and S is the peak height of the substrate peptide. Reactions were performed in duplicate at 12 concentrations, (3× serial dilutions starting at 30 uM). IC50 values were calculated using a 4 Parameter Logistic Model.

First: CN1CCC(N2C[C@@H]3C(C(=O)Nc4nc(-c5ccc(F)cc5)ccc4N)[C@@H]3C2)CC1 (stereo partly drawn) [Compound 263]
Second: CN1CCN(C[C@@H]2[C@H]3CN(C(=O)Nc4nc(-c5ccc(F)cc5)ccc4N)C[C@@H]23)CC1 [Compound 269]
The IC50 of the first is lower: 500 to 5000 nM for the first, over 5000 nM for the second.

First: Nc1ccc(-n2cccn2)nc1NC(=O)C1CCN(Cc2ccccc2F)CC1 [Compound 370]
Second: Nc1ccc(-n2cccn2)nc1NC(=O)N1Cc2cc(F)cnc2C1 [Compound 185]
The IC50 of the first is higher: over 5000 nM for the first, 500 to 5000 nM for the second.

First: CN1CCN(C2CC3CN(C(=O)Nc4nc(-c5ccc(F)cc5)ccc4N)CC3C2)CC1 (stereo not drawn) [Compound 179]
Second: CN1CC2CN(C(=O)Nc3nc(-c4ccc(F)cc4)ccc3N)CC2C1 (stereo not drawn) [Compound 201]
The IC50 of the first is lower: 500 to 5000 nM for the first, over 5000 nM for the second.

First: CN1CCC(c2cnc3c(c2)CN(C(=O)Nc2nc(-c4cccnc4)ccc2N)C3)CC1 [Compound 265]
Second: Nc1ccc(-c2cccnc2)nc1NC(=O)N1CCCC1 [Compound 221]
The IC50 of the first is lower: 500 to 5000 nM for the first, over 5000 nM for the second. The first is the more potent here.

Compared with `Nc1ccc(-c2ccc(F)cc2)nc1NC(=O)N1C[C@@H]2[C@@H](CO)[C@@H]2C1` [Compound 238], `CN1CC(CC(=O)Nc2nc(-c3ccc(F)cc3)ccc2N)C1` [Compound 376] is higher in IC50: 500 to 5000 nM for the first, over 5000 nM for the second. The first is the more potent here.

First: CN(C1CCOC1)C1CC2CN(C(=O)Nc3nc(-c4ccc(F)cc4)ccc3N)CC2C1 (stereo not drawn) [Compound 237]
Second: Nc1ccc(-c2ccc(F)cc2)nc1NC(=O)N1Cc2cccnc2C1 [Compound 397]
The IC50 of the first is higher: over 5000 nM for the first, 100 to 500 nM for the second.

First: Nc1ccc(-c2ccc(F)cc2)nc1NC(=O)N1Cc2cc(CN3CC(F)(F)C3)cnc2C1 [Compound 266]
Second: Nc1ccc(-c2ccc(F)cc2)nc1NC(=O)N1Cc2ccc(CN3CCC(F)(F)C3)cc2C1 [Compound 386]
The IC50 of the first is higher: 500 to 5000 nM for the first, 100 to 500 nM for the second. The second is the more potent here.

`Nc1ccc(-c2cccs2)nc1NC(=O)N1Cc2nccnc2C1` [Compound 156] and `CN(C)Cc1ccc2c(c1)CN(C(=O)Nc1nc(-c3cccs3)ccc1N)C2` [Compound 409] fall in the same range of IC50: 100 to 500 nM for the first, 100 to 500 nM for the second.

`Nc1cn(-c2ccccc2)nc1NC(=O)N1CCC2(CCOCC2)C1` [Compound 407] and `Nc1ccc(-c2ccco2)nc1NC(=O)C1CN(Cc2ccccc2)C1` [Compound 198] cannot be ordered by IC50: over 5000 nM for the first, over 5000 nM for the second.

First: Nc1ccc(-c2ccc(F)cc2)nc1NC(=O)N1Cc2ccc(CO)cc2C1 [Compound 366]
Second: Cc1cc(F)ccc1-c1ccc(N)c(NC(=O)N2Cc3cnc(CN(C)C)cc3C2)n1 [Compound 261]
The IC50 of the first is lower: 100 to 500 nM for the first, over 5000 nM for the second. The first is the more potent here.

Tested on: SH-SY5Y cells
Test: Cell assay: SH-SY5Y cells, HDAC-Glo 2 reagent
Type: cell-based
Details: Homo sapiens, 5 h incubation, CI-994 at 100 uM = 100% inhibition
Protocol: SH-SY5Y cells (Sigma) were cultured in Eagle's Modified Essential Medium supplemented with 10% fetal bovine serum and pen/strep. Twenty-four hours prior to compound dosing 20 uL of cells were plated in white 384 well plates at a density of 1,500 cells/well. Compounds were serially diluted in neat DMSO and then diluted 1:100 v/v into media without FBS and mixed. Media was removed from the plated cells and the diluted compounds in serum free media (1% v/v final DMSO) were added and incubated at 37° C. for five hours. Ten uL of HDAC-Glo 2 reagent with 0.1% Triton X-100 was then added, the plate was mixed and allowed to develop at room temperature for 100 minutes. Plates were then read with a Spectramax LMax luminometer employing a 0.4 s integration time. Dose response curves were constructed with normalized data where CI-994 at 100 uM was defined as 100% inhibition and DMSO alone as 0% inhibition.

In the case of `CN1CCC(N2C[C@@H]3C(C(=O)Nc4nc(-c5ccc(F)cc5)ccc4N)[C@@H]3C2)CC1` (stereo partly drawn) [Compound 263], the EC50 is reported as 500 to 5000 nM.
